Source: US10844023B2 (Washington University, priority 2017, dated 2020)
* marks the point of attachment. FITC = O=C1OC2(c3ccc(O)cc3Oc3cc(O)ccc32)c2ccc(NC(=S)*)cc21

Assays:
[1] = Solubility of library compounds in DMSO; format: physicochemical; conditions: stock concentration of 10 mM in DMSO
Method: A pharmacophore model was generated based on the interactions of HR1 and HR2 domains in the calculated structural model of Mfn2 in the closed conformation. The key features included hydrophobic interactions involving Mfn2 HR1: Val372 and Met376, and aromatic interactions and hydrogen bonding involving Mfn2 HR1 His380. […] A library comprising ˜14 million commercially available compounds was prepared in silico and evaluated using PHASE to fit these criteria. Top ranked hits were clustered, and filtered based on pharmacological properties using Qikprop. The top 55 (see TABLE 4) commercially available small molecules conforming to the model were selected for functional screening and purchased in 1 mg aliquots. Each compound was dissolved to a stock concentration of 10 mM in DMSO and applied to Mfn2 null MEFs overnight at a final concentration of […]. Eleven of the library members were not soluble in DMSO at the required concentration. The 44 fully soluble compounds were screened in groups of 6 at a time for cytotoxicity (calcein AM/ethidium homodimer staining; ThermoFisher LIVE/DEAD Assay cat #L3224) and fusogenicity (increase in mitochondrial aspect ratio; MitoTracker Orange staining) compared to cells treated overnight with […] of the parent HR1 367-384 mitofusin agonist peptide (positive control) or vehicle (DMSO). Images were acquired by confocal microscopy. Each compound was scored for fusogenicity (see e.g., FIG. 24A) and % cell death (see e.g., FIG. 24B). Pharmacophore model fit generally correlated with actual fusogenic activity (Pearson correlation coefficient r=0.214; see e.g., FIG. 24A, inset; TABLE 4).

[2] = Human liver microsome stability assay; format: in vitro ADME; conditions: human liver microsomes (FIG. 49)
Method: FIG. 49 is a series of structures and a graph showing dose-response and human liver microsomal stability data for fusogenic compounds from FIG. 22. […] T1/2 values are from human liver microsome stability assay.
(§1) Plasma protein binding was measured using equilibrium dialysis; % bound=(1-[free compound in dialysate]/[total compound in retentate])×100. Plasma stability of […] compound in clarified freeze-thawed plasma was assessed by LC-MS/MS of supernatants after protein precipitation; 120 min data are reported for studies including 0, 10, 30, 60, and 120 min. Microsome stability of […] compound in liver microsomes (0.5 mg/ml) after 0, 5, 10, 20, 30, 60 min. incubation was assessed by LC/MS/MS of reaction extracts.

Mfn2 null MEFs = test: Mitochondrial elongation (aspect ratio) fusogenicity assay; format: cell-based, mouse; set-up: % long compare to B: dose or concentration left out as unconfirmed; conditions: for Fusogenic activity: mitochondrial elongation / fusion; for % long compare to B: mitochondrial elongation relative to Cpd B (B01 = 100), compound overnight as printed (FIG. 48)
[3] = Plasma protein binding (equilibrium dialysis); format: in vitro ADME
Method: as §1

[4] = Liver microsome stability; format: in vitro ADME
Method: as §1

MFN2 HR2 = target: T1, MFN2 HR2 (Homo sapiens, UniProt O95140); test: HR1 peptide-HR2 target binding assay; conditions: FITC minipeptide 374-384 at HR2 binding site
T1 construct: host or cells: synthetic peptide (note in the listing); immobilised on Ni-NTA resin
T1 sequence (O95140 with tags, fused parts or gaps limits assumed): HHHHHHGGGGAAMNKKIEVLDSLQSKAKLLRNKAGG
Text: The Mfn-derived fusion-promoting and -inhibiting mini-peptides (simulated to obtain the chemical Mfn agonists in TABLE 1 and TABLE 2) were modified from amino acid heptad repeats (HR) in the HR1 domain and predicted to interact with their counterparts in the carboxyl terminus HR2 domain within the Mfn stalk region (see e.g., FIG. 1, top panel). A high-throughput binding assay was designed whereby the target HR2 peptide sequences, modified to include amino terminal 6×His tags and Gly linkers, were bonded to Ni-chelate resin (20 μg/ml) and used as immobilized “receptor” for amino-FITC-tagged Mfn2 374-384 (agonist ligand) in which the Ser analogous to Ser378 was replaced with Asp to confer the negative charge essential for activity. For antagonist studies the ligand was amino-FITC-tagged Mfn2 406-418. The FITC peptide ligands are suspended at 1 mM in 30% DMSO, 70% water (to minimize spontaneous aggregation) and diluted into binding buffer (de-ionized water) to a final concentration of 25 μM in the presence or absence of competing compound. Dose-dependent loss of resin-bound FITC signal (485 nm excitation/538 nm emission) measured in a 96 well spectrofluorometer represents binding of compound to its HR2 target (see e.g., FIG. 10, FIG. 11). Either the ligand peptide or the receptor peptide can be modified to represent mutations, variations, or posttranslational modifications of Mfn2. […]
Target HR2 peptide sequence modified to include amino terminal 6×His tags and Gly linkers, were bonded to Ni-NTA resin (4.4 μg/ml) (Quiagen) and used as immobilized “receptor” for amino-FITC-tagged Mfn2 374-384 (ligand) in which the Ser analogous to Ser378 was replaced with Asp to confer the negative charge essential for activity. […] Resin-bound FITC signal (485 nm excitation/538 nm emission) measured in a 96 well spectrofluorometer (Spectramax M5e, Molecular Devices) represented binding to HR2 target. Competition binding isotherms were plotted and IC50 values calculated using Prism 7 (GraphPad).

Compound: Cc1cc(C)nc(SCC(C)Cn2c(N3CCC(C(N)=O)CC3)nc3c2c(=O)[nH]c(=O)n3C)n1 (centres unmarked) [1-(7-{3-[(4,6-dimethylpyrimidin-2-yl)sulfanyl]-2-methylpropyl}-3-methyl-2,6-dioxo-2,3,6,7-tetrahydro-1H-purin-8-yl)piperidine-4-carboxamide]
- Solubility in DMSO at required concentration [1]: Insol- uble

Compound: Cn1c(SCC(=O)Nc2sc3c(c2C(N)=O)CCC3)nnc1-c1ccccc1 [1-B1, 2-{2-[(4-methyl-5-phenyl-4H-1,2,4-triazol-3-yl]sulfanyl]acetamido}-4H,5H,6H-cyclopenta[b]thiophene-3-carboxamide]
- Resistance to liver microsomal degradation vs Cpd B [2]: greater resistance to liver microsomal degradation
- Fusogenic activity (Mfn2 null MEFs): more potent
- % long compare to B (Mfn2 null MEFs; Mfn2 null MEFs): 107%

Compound: CCn1c(SCC(=O)Nc2sc3c(c2C(N)=O)CCC3)nnc1C1CC1 [1-G11, 2-{2-[(5-cyclopropyl-4-ethyl-4H-1,2,4-triazol-3-yl)sulfanyl]acetamido}-4H,5H,6H-cyclopenta[b]thiophene-3-carboxamide]
- Resistance to liver microsomal degradation vs Cpd B [2]: greater resistance to liver microsomal degradation
- Fusogenic activity (Mfn2 null MEFs): more potent
- % long compare to B (Mfn2 null MEFs; Mfn2 null MEFs): 99%

Compound: CCC(Sc1nc2cc(OC)c(OC)cc2c2nc(CCn3nc(C)cc3C)nn12)C(=O)Nc1ccc(F)cc1 (centres unmarked) [2-({2-[2-(3,5-dimethyl-1H-pyrazol-1-yl)ethyl]-8,9-dimethoxy-[1,2,4]triazolo[1,5-c]quinazolin-5-yl]sulfanyl)-N-(4-fluorophenyl)butanamide]
- Solubility in DMSO at required concentration [1]: Insol- uble

Compound: CC(=O)NC12CC3CC(C1)CC(C(=O)NCCSCc1ccc(C)cc1)(C3)C2 [3-acetamido-N-(2-{[(4-methylphenyl)methyl]sulfanyl}ethyl)adamantane-1-carboxamide]
- Solubility in DMSO at required concentration [1]: Insol- uble

Compound: Cc1ccc(C(=O)C(C)Sc2nnc3c(=O)n(-c4ccccc4)ccn23)cc1C (centres unmarked) [3-{[1-(3,4-dimethylphenyl)-1-oxopropan-2-yl]sulfanyl}-7-phenyl-7H,8H-[1,2,4]triazolo[4,3-a]pyrazin-8-one]
- Solubility in DMSO at required concentration [1]: Insol- uble

Compound: Cc1ccc(C(=O)C(C)Sc2nnc3c(=O)n(-c4ccc(Br)cc4)ccn23)cc1C (centres unmarked) [7-(4-bromophenyl)-3-{[1-(3,4-dimethylphenyl)-1-oxopropan-2-yl]sulfanyl}-7H,8H-[1,2,4]triazolo[4,3-a]pyrazin-8-one]
- Solubility in DMSO at required concentration [1]: Insol- uble

Compound: COc1cc(Cl)c(C)cc1N1C(=O)[C@@H]2C[C@H]1CN2Cc1cccn1-c1ncccn1 [(1S,4S)-2-(4-chloro-2-methoxy-5-methylphenyl)-5-{[1-(pyrimidin-2-yl)-1H-pyrrol-2-yl]methyl}-2,5-diazabicyclo[2.2.1]heptan-3-one]
- Solubility in DMSO at required concentration [1]: Insol- uble

Compound: Cn1c(CCCNC(=O)NC2CCOCC2)nnc1C1CC1 [Mitolityn-6, 1-(3-(5-cyclopropyl-4-methyl-4H-1,2,4-triazol-3-yl)propyl)-3-(tetrahydro-2H-pyran-4-yl)urea]
- Plasma protein binding [3]: low plasma protein binding
- Liver microsome stability [4]: stability in the liver microsome assay
- Fusogenic activity (Mfn2 null MEFs): highest potency

Compound: Cc1ccc(CSCCNC(=O)C2CCN(c3ccc4nnc(C(F)(F)F)n4n3)CC2)cc1 [N-(2-{[(4-methylphenyl)methyl]sulfanyl}ethyl)-1-[3-(trifluoromethyl)-[1,2,4]triazolo[4,3-b]pyridazin-6-yl]piperidine-4-carboxamide]
- Solubility in DMSO at required concentration [1]: Insol- uble

Compound: Cc1cc(NC(=O)C(C)SCC(=O)Nc2ccc(NC(C)c3ccccc3)cc2)no1 (centres unmarked) [N-(5-methyl-1,2-oxazol-3-yl)-2-{[({4-[(1-phenylethyl)amino]phenyl}carbamoyl)methyl]sulfanyl}propanamide]
- Solubility in DMSO at required concentration [1]: Insol- uble

Compound: CC(Sc1nc(C2CC2)nc2c1c(=O)[nH]c(=O)n2C1CC1)C(=O)NCC1CCCCC1 (centres unmarked) [N-(cyclohexylmethyl)-2-({2,8-dicyclopropyl-5,7-dioxo-5H,6H,7H,8H-pyrimido[4,5-d][1,3]diazin-4-yl}sulfanyl)propanamide]
- Solubility in DMSO at required concentration [1]: Insol- uble

Compound: Cc1ccc(SC(C)C(=O)Nc2ccc(NS(=O)(=O)c3ccc4c(c3)OCCCO4)cc2)cc1 (centres unmarked) [N-[4-(3,4-dihydro-2H-1,5-benzodioxepine-7-sulfonamido)phenyl]-2-[(4-methylphenyl)sulfanyl]propanamide]
- Solubility in DMSO at required concentration [1]: Insol- uble

Compound: CCc1nnc(SC(CC)C(=O)N(CC)c2cccc(C)c2)c2cc3occc3n12 (centres unmarked) [N-ethyl-2-({12-ethyl-5-oxa-1,10,11-triazatricyclo[6.4.0.0^2,6]dodeca-2(6),3,7,9,11-pentaen-9-yl}sulfanyl)-N-(3-methylphenyl)butanamide]
- Solubility in DMSO at required concentration [1]: Insol- uble

Compound: Cc1ccc(NC(=O)CC2SC(NC(c3ccc(C(C)C)cc3)c3c(O)[nH]c(=O)[nH]c3=O)=NC2=O)c(C)c1 (centres unmarked) [drawing 252, N-(2,4-dimethylphenyl)-2-(2-{[(6-hydroxy-2,4-dioxo-1,2,3,4-tetrahydropyrimidin-5-yl)[4-(propan-2-yl)phenyl]methyl]amino}-4-oxo-4,5-dihydro-1,3-thiazol-5-yl)acetamide]
- Aspect ratio (MEAN ± SEM) (Mfn2 null MEFs; Mfn2 null MEFs, overnight, treatment with 1 μM compound (footnote)): 3.1 ± 0.3
- Fusogenicity Rank (Mfn2 null MEFs; rank order of aspect ratio among 44 soluble library compounds): 35

Compound: O=C(NCCCCc1ccccc1)Nc1ccccc1 [pA, 3-phenyl-1-(4-phenylbutyl)urea]
- % long compare to B (Mfn2 null MEFs; Mfn2 null MEFs): 59%

Compound: NC(=O)c1c(NC(=O)CCCc2ccccc2)sc2c1CCC2 [pB, 2-(4-phenylbutanamido)-4H,5H,6H-cyclopenta[b]thiophene-3-carboxamide]
- % long compare to B (Mfn2 null MEFs; Mfn2 null MEFs): 6%

Compound: Ala^378 minipeptide: "(NH3) FITC-GGGG-AVRGIMDALHMAAR-GG (COOH) (FITC labeled Ala peptide) (SEQ ID NO: 28)" ({FITC}-GGGGAVRGIMDALHMAARGG-OH)
- Binding to / competition at HR2 target (MFN2 HR2): did not

Compound: Ser^378 minipeptide: "(NH3) FITC-GGGG-AVRGIMDSLHMAAR-GG (COOH) (FITC labeled Ser peptide) (SEQ ID NO: 26)" ({FITC}-GGGGAVRGIMDSLHMAARGG-OH)
- Binding to / competition at HR2 target (MFN2 HR2): did not
